Literature values as cited in patent publication US20210299202A1, “FORMULATION OF C[…]” (CARDINAL ADVISORY LIMITED, priority 2018, published 2021).

What was measured:
[1] = oral ingestion
[2] = smoked, pulmonary absorption

CCCCCc1cc(O)c2c(c1)OC(C)(C)[C@@H]1CCC(C)=C[C@@H]21 [THC, delta-9-tetrahydrocannabinol]
time to peak plasma concentration [1]: 2 to 6 h | time to peak plasma THC concentration [2]: 6 to 10 min
